Experimental data as given in PMC5971061, “Differential Effects of Linkers on the Activity of Amphiphilic Tobramycin Antifungals” (Molecules : A Journal of Synthetic Chemistry and Natural …, 2018).
≈ marks a conversion by molar mass, not a printed value.

Key:
[1] = system: C. parapsilosis ATCC 22019 (strain J); experiment: Time-kill assay, strain J; type: cell-based, Candida parapsilosis
Procedure: (§1) Time-kill assays were used to assess the inhibitory efficiency of 7b against three yeast strains, C. albicans ATCC 10231 (strain A), C. parapsilosis ATCC 22019 (strain J), and C. neoformans clinical isolate CN1. The protocol for time-kill assays followed methods previously described with minor modifications. Yeast cultures were grown overnight in YPD broth at 35 °C with shaking (200 rpm). A working stock of fungal cells was made by diluting cultures in RPMI 1640 medium to an OD600 of 0.125, approximately 1 × 10^6 CFU/mL. From the working stock, 100 μL of cells was added to 4.9 mL of RPMI 1640 medium in sterile culture tubes, making the starting fungal cell concentration […]. Compounds were then added to the fungal cells. The treatment conditions included sterile control, growth control, TOB (parent; negative control), voriconazole (VOR) at 1× MIC (positive control), 7b at 1× and 4× MIC. The treated fungal cultures were incubated at 35 °C with shaking (200 rpm) for 24 h. The samples were taken from the different treatments at regular time points (0, 3, 6, 9, 12, and 24 h.) and plated in duplicates. For each time point, cultures were vortexed, 100 μL of culture was aspirated, and 10-fold serial dilutions were made in sterile ddH2O. From the appropriate dilutions, 100 μL of fungal suspension was spread on PDA plates and incubated at 35 °C for 48 h before the colony counts were determined. At 24 h, 50 μL of 1 mM resazurin was added to the treatments and incubated at 35 °C with rotation for 2 h in the dark for visual inspection. Experiments were performed in duplicate.

[2] = system: C. neoformans clinical isolates CN1-3; experiment: MIC across C. neoformans clinical isolates CN1-3; type: cell-based, Cryptococcus neoformans; settings: Cryptococcus neoformans
Procedure: The final concentrations of compounds 3, 4, 7a, 7b, 9, and 16, as well as that of TOB tested in this study ranged from 0.24–62.5 μg/mL. CAS was used as a positive control and the final concentrations tested for CAS ranged from 0.03–31.3 μg/mL. Briefly, overnight yeast cultures were grown in yeast peptone dextrose (YPD) broth and the cell density was adjusted to an OD600 of 0.12 (~1 × 10^6 CFU/mL) by using a spectrophotometer. Yeast cell suspensions were further diluted to achieve 1–5 × 10^3 CFU/mL in RPMI 1640 medium, and 100 μL of these yeast cells was added to 96-well microtiter plates containing RPMI 1640 medium and titrated compounds. Each test was performed in triplicate. The plates were incubated at 35 °C for 48 h.

[3] = system: C. albicans ATCC 10231 (strain A); experiment: Time-kill assay, strain A; type: cell-based, Candida albicans
Procedure: as §1

[4] = system: C. neoformans (strain CN1); experiment: Time-kill assay, CN1; type: cell-based, Cryptococcus neoformans
Procedure: as §1

[5] = system: Cryptococcus neoformans MYA-895; design: method as in PMID 26033722; settings: previously observed; cited from earlier work

## NC[C@H]1O[C@H](O[C@H]2[C@H](O)[C@@H](O[C@H]3O[C@H](CO)[C@@H](O)[C@H](N)[C@H]3O)[C@H](N)C[C@@H]2N)[C@H](N)C[C@@H]1O [TOB, tobramycin]
[1]; TOB 15.6 μg/mL, 24-h period
  effect on growth (time-kill, in words): did not affect the growth
[2]
  MIC: > 62.5 µg/mL
[3]; 24-h period, TOB 15.6 μg/mL, VOR 1× MIC 1.0 μg/mL
  effect on growth (time-kill, in words): did not affect the growth
[4]; controls TOB 15.6 μg/mL and VOR 1× MIC, 24-h period
  effect on growth (time-kill, in words): little to no growth inhibitory effect

## CCCCCCCCCCCCSC[C@H]1O[C@H](O[C@@H]2[C@@H](O)[C@H](O[C@H]3O[C@H](CN)[C@@H](O)C[C@H]3N)[C@@H](N)C[C@H]2N)[C@H](O)[C@@H](N)[C@@H]1O [Compound 3, O-3-Amino-3-deoxy-6-S-dodecyl-6-thio-α-D-glucopyranosyl-(1→6)-O-[2,6-diamino-2,3,6-trideoxy-α-D-ribo-hexopyranosyl-(1→4)]-2-deoxy-D-streptamine]
[5]
  MIC value: 1.95 µg/mL (≈ 2.99 µM)

## CCCCCCCCCCCCc1cn(C[C@H]2O[C@H](O[C@@H]3[C@@H](O)[C@H](O[C@H]4O[C@H](CN)[C@@H](O)C[C@H]4N)[C@@H](N)C[C@H]3N)[C@H](O)[C@@H](N)[C@@H]2O)nn1 [Compound 7b, O-3-Amino-3,6-dideoxy-6-(4-dodecyl-1H-1,2,3-triazol-1-yl)-α-D-glucopyranosyl-(1→6)-O-[2,6-diamino-2,3,6-trideoxy-α-D-ribo-hexopyranosyl-(1→4)]-2-deoxy-D-streptamine]
[1]; 1.95 μg/mL (1× MIC), after 24 h of treatment
  decrease in CFU: ≥ 2 log10
[1]; 7.8 μg/mL (4× MIC), after 24 h
  effect on growth (time-kill, in words): completely killed
[1]; 7b at 1.95 μg/mL (1× MIC)
  effect on growth (time-kill, in words): fungistatic effect at 1.95 μg/mL (1× MIC) only for the first 3 h
[3]; 15.6 μg/mL (4× MIC), after 6 h of treatment
  reduction of CFU: ≥ 2 log10
[3]; 1× MIC (7b 3.9 μg/mL; VOR 1.0 μg/mL), after 9 h of treatment
  reduction of CFU: ≥ 2 log10
[4]; 0.49 μg/mL (1× MIC)
  time to complete fungal cell death: 6 h
[4]; 0.49 μg/mL (1× MIC), after 3 h of treatment
  reduction of CFU: ≥ 2 log10
[4]; 1.95 μg/mL (4× MIC)
  time to complete fungal cell death: 3 h
